Where two headings read alike, the source gives them in different places.
Assays:
HT-29 cells = assay: Inhibition test for sphere formation assay of cancer cells; format: cell-based; conditions: for IC50: sphere culture (ultra-low attachment, serum-free), 4 days, CellTiter-Glo, read-out: Sphere IC50 value (concentration for 50% inhibition of cell proliferation); for activity for inhibiting cell proliferation in the sphere culture condition: summary in words
Procedure: Reliable methods established for measuring the self-renewal ability of cells which is one of the CSC's properties include a method for measuring the sphere-forming ability of cancer cells in non-adherent condition in the absence of serum (Cancer Res 65, 5506-5511 (2005)). HT-29 cells were available from American Type Culture Collection (ATCC). HT-29 cells were cultured at 37° C. under 5% CO2 using the McCoy's 5a medium containing 10% fetal bovine serum (FBS) and 1% penicillin/streptomycin. HT-29 cells were seeded in a 384 Well Black Clear Bottom Ultra-Low Attachment Microplate (Corning Cat. No. 3827) in an amount of 350-800 cells/well using the DMEM/F12 medium containing 2% B27 supplement (GIBCO), 20 ng/mL epidermal growth factor (EGF) (peprotech), 10 ng/mL basic fibroblast growth factor (bFGF) (peprotech), 5 μg/mL insulin (Sigma), and 1% penicillin/streptomycin. Each test compound was added into each well to adjust the final concentration of DMSO to 0.1%, and the cells were cultured for 4 days. The number of viable cells in each well was then measured with CellTiter-Glo™ Luminescent Cell Viability Assay (Promega) to calculate the concentration of each test compound for 50% inhibition of cell proliferation (Sphere IC50 value; […])
The experiment of Test 1 was performed for each compound of each Example. The concentration of each test compound for 50% inhibition of cell proliferation (Sphere IC50 value; μmol/L) is shown in the following Table.

hERG = hERG (Homo sapiens (Human), UniProt Q12809); assay: Test for evaluating hERG inhibition (QPatch HT, CHO cell strain stably expressing hERG); conditions: for hERG/HT-29: hERG IC50 (Test 2) divided by HT-29 sphere IC50 (Test 1); for deviation between the concentration of inhibiting 50% cell proliferation and the concentration of inhibiting 50% hERG current: summary in words of hERG/HT-29
Chain of hERG (Q12809 whole entry): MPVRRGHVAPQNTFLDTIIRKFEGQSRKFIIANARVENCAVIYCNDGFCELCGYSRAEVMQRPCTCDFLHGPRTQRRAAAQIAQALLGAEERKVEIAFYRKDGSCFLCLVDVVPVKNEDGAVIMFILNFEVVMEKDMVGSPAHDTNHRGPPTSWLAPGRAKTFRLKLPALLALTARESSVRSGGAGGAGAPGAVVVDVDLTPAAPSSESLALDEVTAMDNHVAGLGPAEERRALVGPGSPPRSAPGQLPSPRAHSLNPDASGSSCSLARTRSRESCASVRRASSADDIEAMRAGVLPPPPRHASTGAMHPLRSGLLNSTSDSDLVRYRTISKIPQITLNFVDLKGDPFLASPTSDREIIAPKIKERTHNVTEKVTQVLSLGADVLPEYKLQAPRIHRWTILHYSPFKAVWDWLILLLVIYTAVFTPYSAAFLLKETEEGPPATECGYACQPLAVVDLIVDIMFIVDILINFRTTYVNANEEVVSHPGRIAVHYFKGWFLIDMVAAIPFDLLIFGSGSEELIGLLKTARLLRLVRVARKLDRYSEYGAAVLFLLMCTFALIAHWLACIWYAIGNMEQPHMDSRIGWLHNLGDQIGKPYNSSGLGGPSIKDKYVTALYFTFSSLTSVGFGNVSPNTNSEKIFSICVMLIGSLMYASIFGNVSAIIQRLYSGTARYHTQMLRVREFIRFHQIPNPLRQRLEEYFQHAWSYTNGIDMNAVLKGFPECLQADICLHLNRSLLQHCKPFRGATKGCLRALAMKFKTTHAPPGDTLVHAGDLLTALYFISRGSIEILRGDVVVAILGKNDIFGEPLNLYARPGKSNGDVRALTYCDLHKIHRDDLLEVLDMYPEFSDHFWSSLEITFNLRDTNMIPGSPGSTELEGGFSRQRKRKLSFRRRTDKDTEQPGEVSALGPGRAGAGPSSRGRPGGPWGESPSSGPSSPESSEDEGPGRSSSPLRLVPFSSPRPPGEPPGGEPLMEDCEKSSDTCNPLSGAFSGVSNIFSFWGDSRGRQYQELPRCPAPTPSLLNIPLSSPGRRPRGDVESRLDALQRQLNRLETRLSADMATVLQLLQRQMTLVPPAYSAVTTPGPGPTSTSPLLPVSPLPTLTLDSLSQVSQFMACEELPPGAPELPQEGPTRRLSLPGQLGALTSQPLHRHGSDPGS
Procedure: To a cultured CHO cell strain which stably expresses hERG was added each test compound to adjust the final concentration of DMSO to 0.0135 to 0.5%. The hERG current was measured with QPatch HT (Sophion Inc.), and the concentration at which 50% of the hERG current was inhibited by each test compound (IC50 value; μM) was calculated.
The compounds of Examples were tested according to Test 2. And, the hERG/HT-29 was calculated by dividing the compound concentration obtained in Test 2 (50% of the hERG current is inhibited) by the compound concentration obtained in Test 1 (50% of the proliferation of HT-29 cells is inhibited).

[1] = read-out: Binding inhibition (IC50, μM), concentration at which 50% of the hERG current was inhibited, CHO cells stably expressing hERG, QPatch HT

| Compound | IC50 (HT-29 cells) [nM] | hERG/HT-29 (hERG) | IC50 (hERG; [1]) [µM] | IC50 (HT-29 cells; Homo sapiens, 96 h) [nM] | IC50 (hERG) [µM] | activity for inhibiting cell proliferation in the sphere culture condition (HT-29 cells) | deviation between the concentration of inhibiting 50% cell proliferation and the concentration of inhibiting 50% hERG current (hERG) |
| --- | --- | --- | --- | --- | --- | --- | --- |
| Cc1nc[nH]c1CN1CCC2(CC1)COC1c3cc(F)ccc3OC(C)(C)C1C2 (stereo not drawn) [Example 22] | 240 | 6.67 | 1.6 |  |  |  |  |
| Cc1nc[nH]c1CN1CCC2(CC1)COC1c3ccc(Cl)cc3OC(C)(C)C1C2 (racemic) [Example 18, Racemate of (4′aR,10′bR)-8′-chloro-5′,5′-dimethyl-1-[(4-methyl-1H-imidazol-5-yl)methyl]-4′a,10′b-dihydro-2′H,4′H,5′H-spiro[piperidine-4,3′-pyrano[3,2-c][1]benzopyran] and (4′aS,10′bS)-8′-chloro-5′,5′-dimethyl-1-[(4-methyl-1H-imidazol-5-yl)methyl]-4′a,10′b-dihydro-2′H,4′H,5′H-spiro[piperidine-4,3′-pyrano[3,2-c][1]benzopyran]] |  | 30 |  | 20 | 0.6 |  |  |
| CC1(C)Oc2cc(Cl)ccc2C2OCC3(CCN(CCn4ccnc4)CC3)CC21 (stereo not drawn) [Example 42] | < 10 | >140 | 1.4 |  |  | potent activity | good deviation |
| Cc1nccn1CCN1CCC2(CC1)COC1c3cc(Cl)ccc3OC(C)(C)C1C2 (stereo not drawn) [Example 46] |  | >120 | 1.2 |  |  |  | good deviation |
| Cn1cncc1CN1CCC2(CC1)COC1c3cc(F)ccc3OC(C)(C)C1C2 (stereo not drawn) [Example 31] | 60 | 23.3 | 1.4 |  |  |  |  |
| Cc1nccn1CC(=O)N1CCC2(CC1)COC1c3cc(N=[N+]=[N-])ccc3OC(C)(C)C1C2 (stereo not drawn) [Example 10] | 240 |  | < 0.3 |  |  |  |  |
| Cc1nc[nH]c1CN1CCC2(CC1)COC1c3cccc(Cl)c3OC(C)(C)C1C2 (stereo not drawn) [Example 27] | 350 | 1.14 | 0.4 |  |  |  |  |
| Cc1nccn1CC(=O)N1CCC2(CC1)COC1c3cc(Cl)ccc3OC(C)(C)C1C2 (racemic) [Example 1, Racemate of 1-[(4′aS,10′bS)-9′-chloro-5′,5′-dimethyl-4′a,10′b-dihydro-2′H,4′H,5′H-spiro[piperidine-4,3′-pyrano[3,2-c][1]benzopyran]-1-yl]-2-(2-methyl-1H-imidazol-1-yl)ethan-1-one and 1-[(4′aR,10′bR)-9′-chloro-5′,5′-dimethyl-4′a,10′b-dihydro-2′H, 4′H, 5′H-spiro[piperidine-4,3′-pyrano[3,2-c][1]benzopyran]-1-yl]-2-(2-methyl-1H-imidazol-1-yl)ethan-1-one] |  |  |  | 80 | < 0.3 |  |  |
| Cc1nc[nH]c1CN1CCC2(CC1)COC1c3ccc(Cl)cc3OCC1C2 (single isomer, unassigned) [Example 64b] | 50 |  | < 0.3 |  |  |  |  |
| Cc1nc[nH]c1CN1CCC2(CC1)COC1c3ccc(Cl)cc3OC(C)(C)C1C2 (stereo not drawn) [Example 20] | < 10 | >140 | 1.4 |  |  | potent activity | good deviation |
| CC1(C)Oc2cc(Cl)ccc2C2OCC3(CCN(CCn4ccnc4CCN)CC3)CC21 (stereo not drawn) [Example 62] |  |  | 6.3 |  |  |  |  |
| CC1(C)Oc2ccc(F)cc2C2OCC3(CCN(CCn4ccnc4CO)CC3)CC21 (stereo not drawn) [Example 52] | < 10 |  |  |  |  | potent activity |  |
| Cc1nccn1CC(=O)N1CCC2(CC1)COC1c3cc(Cl)ccc3OC(C)(C)C1C2 (single isomer, unassigned) [Example 4] | 310 |  | < 0.3 |  |  |  |  |
| Cn1cncc1CN1CCC2(CC1)COC1c3cccc(Cl)c3OC(C)(C)C1C2 (stereo not drawn) [Example 34] | < 10 | >140 | 1.4 |  |  | potent activity | good deviation |
| Cc1nc[nH]c1CN1CCC2(CC1)COC1c3cc(Cl)ccc3OC(C)(C)C1C2 (stereo not drawn) [Example 25] | 70 | 5.7 | 0.4 |  |  |  |  |
| Cc1nccn1CCN1CCC2(CC1)COC1c3cc(Cl)ccc3OC(C)(C)C1C2 (stereo not drawn) [Example 48] | < 10 | >80 | 0.8 |  |  | potent activity | good deviation |

| Compound | IC50 (HT-29 cells) [nM] | hERG/HT-29 (hERG) | IC50 (hERG; [1]) [µM] | IC50 (HT-29 cells; Homo sapiens, 96 h) [nM] | IC50 (hERG) [µM] | activity for inhibiting cell proliferation in the sphere culture condition (HT-29 cells) | deviation between the concentration of inhibiting 50% cell proliferation and the concentration of inhibiting 50% hERG current (hERG) |
| --- | --- | --- | --- | --- | --- | --- | --- |
| Cc1nc[nH]c1CN1CCC2(CC1)COC1c3ccc(Cl)cc3OCC1C2 (single isomer, unassigned) [Example 64a] | < 10 | >60 | 0.6 |  |  | potent activity | good deviation |
| CC1(C)Oc2cc(Cl)ccc2C2OCC3(CCN(CCn4ccnc4)CC3)CC21 (racemic) [Example 38, Racemate of (4′aR,10′bR)-8′-chloro-1-[2-(1H-imidazol-1-yl)ethyl]-5′,5′-dimethyl-4′a,10′b-dihydro-2′H,4′H,5′H-spiro[piperidine-4,3′-pyrano[3,2-c][1]benzopyran] and (4′aS,10′bS)-8′-chloro-1-[2-(1H-imidazol-1-yl)ethyl]-5′,5′-dimethyl-4′a,10′b-dihydro-2′H,4′H,5′H-spiro[piperidine-4,3′-pyrano[3,2-c][1]benzopyran]] |  | >80 |  | < 10 | 0.8 |  | good deviation |
| CC1(C)Oc2ccc(Cl)cc2C2OCC3(CCN(Cc4ncc[nH]4)CC3)CC21 (stereo not drawn) [Example 35] | 210 | 16.7 | 3.5 |  |  |  |  |
| Cc1nc[nH]c1CN1CCC2(CC1)COC1c3cc(Cl)ccc3OC(C)(C)C1C2 (stereo not drawn) [Example 24] | 90 | 42.2 | 3.8 |  |  |  |  |
| Cc1c(CO)ncn1CCN1CCC2(CC1)COC1c3cc(Cl)ccc3OC(C)(C)C1C2 (stereo not drawn) [Example 56] | < 10 | >80 | 0.8 |  |  | potent activity | good deviation |
| Cc1nccn1CCN1CCC2(CC1)COC1c3cc(Cl)ccc3OC(C)(C)C1C2 (stereo not drawn) [Example 47] | < 10 | >190 | 1.9 |  |  | potent activity | good deviation |
| Cc1nc(CN2CCC3(CC2)COC2c4cc(Cl)ccc4OC(C)(C)C2C3)c[nH]1 (stereo not drawn) [Example 30] | 2280 | 7.46 | 1.7 |  |  |  |  |
| Cc1nc[nH]c1CN1CCC2(CC1)COC1c3ccc(Cl)cc3OCC1C2 (racemic) [Example 64, Racemate of (4′aS,10′bR)-8′-chloro-1-[(4-methyl-1H-imidazol-5-yl)methyl]-4′a,10′b-dihydro-2′H,4′H,5′H-spiro[piperidine-4,3′-pyrano[3,2-c][1]benzopyran] and (4′aR,10′bS)-8′-chloro-1-[(4-methyl-H-imidazol-5-yl)methyl]-4′a,10′b-dihydro-2′H,4′H,5′H-spiro[piperidine-4,3′-pyrano[3,2-c][1]benzopyran]] |  | 5.71 |  | 70 | 0.4 |  |  |
| CC1(C)Oc2cc(Cl)ccc2C2OCC3(CCN(CCn4ccnc4CO)CC3)CC21 (stereo not drawn) [Example 54] | < 10 | >140 | 1.4 |  |  | potent activity | good deviation |
| CC1(C)Oc2ccc(Cl)cc2C2OCC3(CCN(C(=O)Cn4cnc(CF)c4)CC3)CC21 (stereo not drawn) [Example 16] | 4400 |  |  |  |  |  |  |
| CC1(C)Oc2ccc(F)cc2C2OCC3(CCN(CCn4ccnc4)CC3)CC21 (stereo not drawn) [Example 39] | < 10 | >100 | 1 |  |  | potent activity | good deviation |
| CC1(C)Oc2ccc(Cl)cc2C2OCC3(CCN(CCn4ccnc4CO)CC3)CC21 (stereo not drawn) [Example 53] | < 10 |  |  |  |  | potent activity |  |
| CCc1nc(C)c(CN2CCC3(CC2)COC2c4cc(Cl)ccc4OC(C)(C)C2C3)[nH]1 (stereo not drawn) [Example 28] | 90 |  |  |  |  |  |  |
| Cn1ccnc1CN1CCC2(CC1)COC1c3cc(Cl)ccc3OC(C)(C)C1C2 (stereo not drawn) [Example 36] | 40 |  |  |  |  |  |  |
| COC(=O)c1cn(CCN2CCC3(CC2)COC2c4cc(Cl)ccc4OC(C)(C)C2C3)cn1 (stereo not drawn) [Example 59] | 980 |  |  |  |  |  |  |
